Measured values published in patent publication US7834242B2, “S-adenosyl-L-methionine synthetase promoter and its use in expression of transgenic genes in plants” (E. I. du Pont de Nemours and Company, priority 2003, dated 2010).

Legend:
soybean plants = experiment: Spray test for tolerance to SU herbicide; assay type: in vivo; conditions: 60 grams active ingredient per hectare
Method: Soybean plants, transformed with either pZSL13 or pZSL14, were tested for tolerance to SU herbicide. A spray solution was made containing 60 grams of Thifensulfuron-methyl active ingredient per hectare and 0.25% wt/wt of AL-2999 nonionic surfactant. Thifensulfuron-methyl has the chemical name, methyl 3-[[[[(4-methoxy-6-methyl-1,3,5-triazin-2-yl)amino]carbonyl]amino]sulfonyl]-2-thiophenecarboxylate, and is the active ingredient in the two DuPont sulfonylurea herbicides, HARMONY GT® and PINNACLE®. Either HARMONY GT® or PINNACLE® can be used as the source of this sulfonylurea for the spray test. AL-2999 is a nonionic surfactant, obtainable as ATPLUS UCL 1007® from Uniqema. This mixture was evenly sprayed onto the soybean plants at the 1st or 2nd trifoliate stage of development. After waiting approximately two weeks the results were scored. All wild-type plants (or plants lacking the SAMS:herbicide-resistant ALS transgene) were dead (negative control), all plants from commercially available STS® (Sulfonylurea Tolerant Soybean) seeds were alive (positive control), and plants containing the SAMS:herbicide-resistant ALS transgene from either pZSL13 or pZSL14 also survived. Consequently, either the 1.3-kb (SEQ ID NO:6) or the 2.1-kb (SEQ ID NO:14) fragment from the SAMS gene can drive expression of the mutant ALS gene at levels sufficient to provide tolerance to SU.

SAMS promoter = experiment: Induction of SAMS promoter activity by methionine (GUS activity of SAMS::GUS seedlings); assay type: in vivo, Arabidopsis
Method: (§1) To see if SAMS promoter is regulated by external methionine, the SAMS::GUS transgenic Arabidopsis seeds were germinated in the presence of either H2O, 1× Murashige and Skoog salt (GIBCO BRL), 0.01 mM methionine (Sigma), or 1 mM methionine. Ten days old seedlings from ten independent transgenic lines were analyzed for GUS activity according to the protocol described in Example 5.

Arabidopsis seeds = system: Arabidopsis seeds
Method: as §1

[1] = system: transgenic Arabidopsis plants; experiment: Fluorometric GUS assay of SAMS::GUS transgenic plants; assay type: in vivo, Arabidopsis thaliana; conditions: developing seeds of SAMS::GUS Arabidopsis
Method: FIG. 5 depicts a fluorometric GUS expression assay of transgenic Arabidopsis plants harboring the SAMS::GUS expression cassette. Triple samples of flowers, leaves, stems, siliques coats, young seeds, medium seeds, old seeds, and dry seeds collected from SAMS::GUS transgenic Arabidopsis plants were assayed for GUS activity. The graph was generated by Microsoft Excel and the standard deviation is indicated by the upper part of each column.
The activity of the soybean SAMS promoter was tested by its ability to express the GUS reporter gene in transgenic Arabidopsis plants carrying the SAMS promoter::GUS::3′ Nos expression casstette. […]
The GUS activities of the transgenic Arabidopsis plants were further analyzed by a fluorometric assay. For fluorescence analysis, plant tissues were ground in microfuge tubes with extraction buffer, 50 mM phosphate buffer, pH 7.0, 10 mM EDTA, 0.1% Triton X-100, 0.1% N-lauroyl sarcosine, and 10 mM β-mercaptoethanol, to homogeneity. The samples were centrifuged at 14,000 rpm for 10 minutes, and aliquots of the supernatant were used to determine protein concentrations by the Bradford method (Bio-Rad, Hercules, Calif.) using 96 well microtiter plates read with a kinetic microplate reader (Molecular Devices, Sunnyvale, Calif.). […] Data were entered into a Microsoft Excel spread sheet and analyzed. […]

Molecule: COC(=O)c1sccc1S(=O)(=O)NC(=O)Nc1nc(C)nc(OC)n1 [Thifensulfuron-methyl, methyl 3-[[[[(4-methoxy-6-methyl-1,3,5-triazin-2-yl)amino]carbonyl]amino]sulfonyl]-2-thiophenecarboxylate]
- Plant survival after spray (soybean plants; plants containing SAMS:herbicide-resistant ALS transgene from pZSL13 or pZSL14, approximately two weeks): survived
- Plant survival after spray (soybean plants; plants from commercially available STS seeds, approximately two weeks): alive
- Plant survival after spray (soybean plants; wild-type plants (lacking transgene), 0.25% AL-2999, scored after approximately two weeks): dead

Molecule: CSCC[C@H](N)C(=O)O [methionine]
- SAMS activity induced (GUS activity) compared to H2O treatment (SAMS promoter; 0.01 mM free methionine, ten days old seedlings, ten transgenic lines): more than two-fold
- Induction effect of SAMS promoter (SAMS promoter; 1 mM methionine): less than that by 0.01 mM methionine
- Toxic effect on seedlings (Arabidopsis seeds; 1 mM methionine): smaller sizes and shorter roots of the seedlings
- Toxic effect on germination and survival (Arabidopsis seeds; 10 mM free methionine): only a few Arabidopsis seeds were able to germinate and none survived

B1: SAMS promoter: soybean S-adenosyl-L-methionine synthetase promoter fragment, 1314 bp, SEQ ID NO:6 (nucleic acid)
DNA: TCTAGATCAAACTCACATCCAAACATAACATGGATATCTCCTTACCAATCATACTAATTATTTTGGGTTAAATATTAATCATTATTTTTAAGATATTAATTAAGAAATTAAAAGATTTTTTAAAAAAATGTATAAAATTATATTATTCATGATTTTTCATACATTTGATTTTGATAATAAATATATTTTTTTTAATTTCTTAAAAAATGTTGCAAGACACTTATTAGACATAGTCTTGTTCTGTTTACAAAAGCATTCATCATTTAATACATTAAAAAATATTTAATACTAACAGTAGAATCTTCTTGTGAGTGGTGTGGGAGTAGGCAACCTGGCATTGAAACGAGAGAAAGAGAGTCAGAACCAGAAGACAAATAAAAAGTATGCAACAAACAAATCAAAATCAAAGGGCAAAGGCTGGGGTTGGCTCAATTGGTTGCTACATTCAATTTTCAACTCAGTCAACGGTTGAGATTCACTCTGACTTCCCCAATCTAAGCCGCGGATGCAAACGGTTGAATCTAACCCACAATCCAATCTCGTTACTTAGGGGCTTTTCCGTCATTAACTCACCCCTGCCACCCGGTTTCCCTATAAATTGGAACTCAATGCTCCCCTCTAAACTCGTATCGCTTCAGAGTTGAGACCAAGACACACTCGTTCATATATCTCTCTGCTCTTCTCTTCTCTTCTACCTCTCAAGGTACTTTTCTTCTCCCTCTACCAAATCCTAGATTCCGTGGTTCAATTTCGGATCTTGCACTTCTGGTTTGCTTTGCCTTGCTTTTTCCTCAACTGGGTCCATCTAGGATCCATGTGAAACTCTACTCTTTCTTTAATATCTGCGGAATACGCGTTGGACTTTCAGATCTAGTCGAAATCATTTCATAATTGCCTTTCTTTCTTTTAGCTTATGAGAAATAAAATCATTTTTTTTTATTTCAAAATAAACCTTGGGCCTTGTGCTGACTGAGATGGGGTTTGGTGATTACAGAATTTTAGCGAATTTTGTAATTGTACTTGTTTGTCTGTAGTTTTGTTTTGTTTTCTTGTTTCTCATACATTCCTTAGGCTTCAATTTTATTCGAGTATAGGTCACAATAGGAATTCAAACTTTGAGCAGGGGAATTAATCCCTTCCTTCAAATCCAGTTTGTTTGTATATATGTTTAAAAAATGAAACTTTTGCTTTAAATTCTATTATAACTTTTTTTATGGCAAAAATTTTTGCATGTGTCTTTGCTCTCCTGTTGTAAATTTACTGTTTAGGTACTAACTCTAGGCTTGTTGTGCAGTTTTTGAAGTATAACCATGG
modifications: Glycine max
- GUS specific activities [1]: 5-40 pmole 4-Mu (4-methylumbelliferone) per microgram protein per minute
